Measurements taken from US20150284331A1 (priority 2012, published 2015).

How the values were obtained:
acetylcholinesterase = target: T1, acetylcholinesterase (Rattus norvegicus, UniProt P37136); assay: biochemical; format: biochemical; details: rat cortex enzyme; for acetylcholinesterase inhibitory activity inhibition ratio (%): final concentration 4×10−5 mol/L; for IC50: read-out: acetylcholinesterase inhibitory activity IC50 (nmol)
T1 construct: Acetylcholinesterase: rat cortex; from tissue; host or cells: rat cortex
T1 sequence (P37136 32-614): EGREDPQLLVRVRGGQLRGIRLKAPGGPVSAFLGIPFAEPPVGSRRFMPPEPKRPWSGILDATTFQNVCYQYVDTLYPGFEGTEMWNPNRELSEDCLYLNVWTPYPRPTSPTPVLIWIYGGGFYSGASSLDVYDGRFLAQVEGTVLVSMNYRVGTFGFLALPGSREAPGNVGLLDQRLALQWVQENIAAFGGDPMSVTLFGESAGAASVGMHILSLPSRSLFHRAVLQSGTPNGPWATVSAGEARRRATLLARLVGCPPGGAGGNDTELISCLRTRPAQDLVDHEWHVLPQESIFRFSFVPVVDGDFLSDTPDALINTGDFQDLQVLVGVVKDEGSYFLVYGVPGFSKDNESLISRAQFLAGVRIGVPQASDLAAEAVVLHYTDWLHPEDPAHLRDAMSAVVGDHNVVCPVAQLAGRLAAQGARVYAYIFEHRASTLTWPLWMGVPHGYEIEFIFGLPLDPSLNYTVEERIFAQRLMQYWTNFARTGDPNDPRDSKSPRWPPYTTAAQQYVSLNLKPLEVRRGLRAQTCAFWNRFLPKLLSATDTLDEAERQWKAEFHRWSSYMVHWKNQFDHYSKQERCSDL
Description: (§1) Sample processing: All samples were formulated as 10-2 mol/L solution by using 100% DMSO. 10-2 mol/L solution was used in microdetermination. 1 μL was taken to use in single tube experiment.
(§2) Solvent control: 0.4% DMSO was used in microdetermination. The inhibition ratio of the sample was obtained wherein the effect of solvent was deducted.
Acetylcholinesterase: rat cortex

butyrylcholinesterase = target: T2, butyrylcholinesterase (Rattus norvegicus, UniProt Q9JKC1); assay: inhibition of butyrylcholinesterase (rat serum); format: biochemical; details: rat serum enzyme; final concentration 4×10−5 mol/L
T2 construct: Butyrylcholinesterase: rat serum; from tissue; host or cells: rat serum
T2 sequence (Q9JKC1 24-597): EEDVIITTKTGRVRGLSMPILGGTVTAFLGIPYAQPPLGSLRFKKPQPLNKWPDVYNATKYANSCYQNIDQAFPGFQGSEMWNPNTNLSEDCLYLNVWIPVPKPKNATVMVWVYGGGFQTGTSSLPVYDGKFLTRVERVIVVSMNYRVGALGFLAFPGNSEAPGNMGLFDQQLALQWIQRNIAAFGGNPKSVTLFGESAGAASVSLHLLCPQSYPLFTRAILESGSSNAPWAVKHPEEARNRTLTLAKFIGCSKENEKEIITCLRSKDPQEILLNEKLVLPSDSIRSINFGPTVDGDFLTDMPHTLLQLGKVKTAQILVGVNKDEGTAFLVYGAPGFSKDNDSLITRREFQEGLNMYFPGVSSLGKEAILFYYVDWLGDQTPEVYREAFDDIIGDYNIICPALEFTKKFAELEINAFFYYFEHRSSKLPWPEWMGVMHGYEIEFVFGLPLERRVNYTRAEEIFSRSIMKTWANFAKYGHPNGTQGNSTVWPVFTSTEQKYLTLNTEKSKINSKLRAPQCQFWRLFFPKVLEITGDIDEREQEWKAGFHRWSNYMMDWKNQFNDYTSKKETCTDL
Description: as §1, §2
Butyrylcholinesterase: rat serum

Compound | acetylcholinesterase inhibitory activity inhibition ratio (%) (acetylcholinesterase) | IC50 (acetylcholinesterase) [µM] | butyrylcholinesterase inhibitory activity inhibition ratio (%) (butyrylcholinesterase)
CCOCOc1cc2c(cc1OCOCC)C(=O)C(CC1(F)CCN(Cc3ccccc3F)CC1)C2 (stereo not drawn) [DC79, 5,6-bis(ethoxymethoxy)-2-((4-fluoro-1-(2-fluorobenzyl)piperidin-4-yl)methyl)-2,3-dihydro-1H-inden-1-one] | 93.05 | 0.00186 | 75.0
COc1cc2c(cc1OC)C(=O)C(CC1(F)CCN(Cc3cccc(C(F)(F)F)c3)CC1)C2 (stereo not drawn) [DC30, 2-((4-fluoro-1-(3-(trifluoromethyl)benzyl)piperidin-4-yl)methyl)-5,6-dimethoxy-2,3-dihydro-1H-inden-1-one] | 97.49 | – | 5.18
COc1cc2c(cc1OC)C(=O)C(CC1(F)CCN(Cc3ccc(F)cc3F)CC1)C2 (stereo not drawn) [DC10, 2-((1-(2,4-difluorobenzyl)-4-fluoropiperidin-4-yl)methyl)-5,6-dimethoxy-2,3-dihydro-1H-inden-1-one] | 97.34 | – | 83.11
COc1cc2c(cc1OC)C(=O)C(CC1(F)CCN(Cc3cccc(C#N)c3)CC1)C2 (stereo not drawn) [DC13, 3-((4-((5,6-dimethoxy-1-oxo-2,3-dihydro-1H-inden-2-yl)methyl)-4-fluoropiperidin-1-yl)methyl)benzonitrile] | 97.19 | – | 29.25
COc1cc2c(cc1OC)C(=O)C(CC1(F)CCN(Cc3ccc([N+](=O)[O-])cc3)CC1)C2 (stereo not drawn) [DC1, 2-((4-fluoro-1-(4-nitrobenzyl)piperidin-4-yl)methyl)-5,6-dimethoxy-2,3-dihydro-1H-inden-1-one] | 72.85 | 8.78 | 46.68
O=C1c2cc(Cl)c(Cl)cc2CC1CC1(F)CCN(Cc2ccccc2F)CC1 (stereo not drawn) [DC106, 5,6-dichloro-2-((4-fluoro-1-(2-fluorobenzyl)piperidin-4-yl)methyl)-2,3-dihydro-1H-inden-1-one] | 70.05 | 0.5 | 88.0
COc1cc2c(cc1OC)C(=O)C(CC1(F)CC3CCC(C1)N3Cc1c(F)c(F)c(F)c(F)c1F)C2 (stereo not drawn) [DC68, 2-((3-fluoro-8-((perfluorophenyl)methyl)-8-azabicyclo[3.2.1]octan-3-yl)methyl)-5,6-dimethoxy-2,3-dihydro-1H-inden-1-one] | 93.80 | – | 4.0
COc1cc2c(cc1OC)C(=O)C(CC1(F)CCN(Cc3cccc(F)c3)CC1)C2 (stereo not drawn) [DC21, 2-((4-fluoro-1-(3-fluorobenzyl)piperidin-4-yl)methyl)-5,6-dimethoxy-2,3-dihydro-1H-inden-1-one] | 82.24 | – | 75.02
COc1cc2c(cc1OC)C(=O)C(CC1(F)CCN(Cc3cc(F)cc(F)c3F)CC1)C2 (stereo not drawn) [DC35, 2-((4-fluoro-1-(2,3,5-trifluorobenzyl)piperidin-4-yl)methyl)-5,6-dimethoxy-2,3-dihydro-1H-inden-1-one] | 94.39 | – | 10.08
COc1cc2c(cc1OC)C(=O)C(CC1(F)CC3CCC(C1)N3Cc1cc(C)cc(C)c1)C2 (stereo not drawn) [DC44, 2-((8-(3,5-dimethylbenzyl)-3-fluoro-8-azabicyclo[3.2.1]octan-3-yl)methyl)-5,6-dimethoxy-2,3-dihydro-1H-inden-1-one] | 95.27 | – | 34.15
COc1cc2c(cc1OC)C(=O)C(CC1(F)CC3CCC(C1)N3Cc1ccccc1)C2 (stereo not drawn) [DC59, 2-((8-benzyl-3-fluoro-8-azabicyclo[3.2.1]octan-3-yl)methyl)-5,6-dimethoxy-2,3-dihydro-1H-inden-1-one] | 86.12 | – | 69.03
COc1cc2c(cc1OC)C(=O)C(CC1(F)CCN(Cc3cc4c(cc3Br)OCO4)CC1)C2 (stereo not drawn) [DC9, 2-((1-((6-bromobenzo[d][1,3]dioxol-5-yl)methyl)-4-fluoropiperidin-4-yl)methyl)-5,6-dimethoxy-2,3-dihydro-1H-inden-1-one] | 97.34 | – | 33.79
COc1cc2c(cc1OC)C(=O)C(CC1(F)CCN(CCc3ccccc3F)CC1)C2 (stereo not drawn) [DC111, 2-((4-fluoro-1-(2-fluorophenethyl)piperidin-4-yl)methyl)-5,6-dimethoxy-2,3-dihydro-1H-inden-1-one] | 92.44 | 0.00196 | 71.58
COc1cc2c(cc1OC)C(=O)C(CC1(F)CC3CCC(C1)N3Cc1cc(F)cc(F)c1F)C2 (stereo not drawn) [DC75, 2-((3-fluoro-8-(2,3,5-trifluorobenzyl)-8-azabicyclo[3.2.1]octan-3-yl)methyl)-5,6-dimethoxy-2,3-dihydro-1H-inden-1-one] | 72.53 | – | 13.53
COc1cc2c(cc1OC)C(=O)C(CC1(F)CCN(Cc3ccc(Br)cc3F)CC1)C2 (stereo not drawn) [DC15, 2-((1-(4-bromo-2-fluorobenzyl)-4-fluoropiperidin-4-yl)methyl)-5,6-dimethoxy-2,3-dihydro-1H-inden-1-one] | 72.65 | 7.04 | 0.31
COc1cc2c(cc1OC)C(=O)C(CC1(F)CC3CCC(C1)N3Cc1ccccc1[N+](=O)[O-])C2 (stereo not drawn) [DC52, 2-((3-fluoro-8-(2-nitrobenzyl)-8-azabicyclo[3.2.1]octan-3-yl)methyl)-5,6-dimethoxy-2,3-dihydro-1H-inden-1-one] | 93.80 | – | 0.73
COc1cc2c(cc1OC)C(=O)C(CC1(F)CCN(CC3CCC3)CC1)C2 (stereo not drawn) [DC31, 2-((1-(cyclobutylmethyl)-4-fluoropiperidin-4-yl)methyl)-5,6-dimethoxy-2,3-dihydro-1H-inden-1-one] | 85.82 | – | 35.06
COc1cc2c(cc1OC)C(=O)C(CC1(F)CCN(Cc3cc(F)cc(F)c3)CC1)C2 (stereo not drawn) [DC27, 2-((1-(3,5-difluorobenzyl)-4-fluoropiperidin-4-yl)methyl)-5,6-dimethoxy-2,3-dihydro-1H-inden-1-one] | 97.34 | – | 18.07
COc1cc2c(cc1OC)C(=O)C(CC1(F)CCN(Cc3ccccc3Br)CC1)C2 (stereo not drawn) [DC14, 2-((1-(2-bromobenzyl)-4-fluoropiperidin-4-yl)methyl)-5,6-dimethoxy-2,3-dihydro-1H-inden-1-one] | 85.03 | 0.004 | 54.77
COc1cc2c(cc1OC)C(=O)C(CC1(F)CC3CCC(C1)N3Cc1ccc(F)cc1)C2 (stereo not drawn) [DC45, 2-((3-fluoro-8-(4-fluorobenzyl)-8-azabicyclo[3.2.1]octan-3-yl)methyl)-5,6-dimethoxy-2,3-dihydro-1H-inden-1-one] | 97.19 | – | 82.56
COc1cc2c(cc1OC)C(=O)C(CC1(F)CCN(Cc3ccccc3F)C(C)C1)C2 (stereo not drawn) [DC109, 2-((4-fluoro-1-(2-fluorobenzyl)-2-methylpiperidin-4-yl)methyl)-5,6-dimethoxy-2,3-dihydro-1H-inden-1-one] | 88.44 | 0.0109 | 76.62
COc1cc2c(cc1OC)C(=O)C(CC1(F)CCN(Cc3cccc(Br)c3)CC1)C2 (stereo not drawn) [DC11, 2-((1-(3-bromobenzyl)-4-fluoropiperidin-4-yl)methyl)-5,6-dimethoxy-2,3-dihydro-1H-inden-1-one] | 84.63 | 0.00433 | 12.76
COC(=O)C1CC(F)(CC2Cc3cc(OC)c(OC)cc3C2=O)CCN1Cc1ccccc1F (stereo not drawn) [DC107, methyl 4-((5,6-dimethoxy-1-oxo-2,3-dihydro-1H-inden-2-yl)methyl)-4-fluoro-1-(2-fluorobenzyl)piperidine-2-carboxylate] | 76.03 | 0.023 | 75.6
COC(=O)c1ccc(CN2C3CCC2CC(F)(CC2Cc4cc(OC)c(OC)cc4C2=O)C3)cc1 (stereo not drawn) [DC50, methyl 4-((3-((5,6-dimethoxy-1-oxo-2,3-dihydro-1H-inden-2-yl)methyl)-3-fluoro-8-azabicyclo[3.2.1]octan-8-yl)methyl)benzoate] | 83.75 | – | 0.00
